For one data set, the target named is T1, CYP2C9 (Homo sapiens, UniProt P11712).
T1 construct: tissue BD-Gentest 452117; host or cells: human liver microsomes
As to the kind of experiment: CYP inhibition assay in human liver microsome, CYP2C9. The format is in vitro ADME. Conditions: substrate diclofenac 5 μM, first value of 2C9/2D6/3A4; for inhibition at 5 min, 10 µM: human, human liver microsomes, probe diclofenac 5 μM. An outline of the steps:
(§1)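 Pooled human liver microsomes with a substrate for each CYP were incubated with compound at 37 °C after NADPH addition, for 5 min (CYP2D6: 10 min), then quenched with acetonitrile containing labelled metabolite standards. Metabolite/internal-standard peak area ratios were measured by RapidFire MS/MS. % inhibition was scaled between DMSO and standard-inhibitor controls.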
For orientation: Microsomes from liver hold many membrane-bound enzymes, among them those of drug oxidation.

In the next data set the target is T2, human TLR7 (Homo sapiens, UniProt Q9NYK1).
T2 construct: host or cells: HEK293 (HEK-Blue hTLR7)
T2 sequence (Q9NYK1 27-1049): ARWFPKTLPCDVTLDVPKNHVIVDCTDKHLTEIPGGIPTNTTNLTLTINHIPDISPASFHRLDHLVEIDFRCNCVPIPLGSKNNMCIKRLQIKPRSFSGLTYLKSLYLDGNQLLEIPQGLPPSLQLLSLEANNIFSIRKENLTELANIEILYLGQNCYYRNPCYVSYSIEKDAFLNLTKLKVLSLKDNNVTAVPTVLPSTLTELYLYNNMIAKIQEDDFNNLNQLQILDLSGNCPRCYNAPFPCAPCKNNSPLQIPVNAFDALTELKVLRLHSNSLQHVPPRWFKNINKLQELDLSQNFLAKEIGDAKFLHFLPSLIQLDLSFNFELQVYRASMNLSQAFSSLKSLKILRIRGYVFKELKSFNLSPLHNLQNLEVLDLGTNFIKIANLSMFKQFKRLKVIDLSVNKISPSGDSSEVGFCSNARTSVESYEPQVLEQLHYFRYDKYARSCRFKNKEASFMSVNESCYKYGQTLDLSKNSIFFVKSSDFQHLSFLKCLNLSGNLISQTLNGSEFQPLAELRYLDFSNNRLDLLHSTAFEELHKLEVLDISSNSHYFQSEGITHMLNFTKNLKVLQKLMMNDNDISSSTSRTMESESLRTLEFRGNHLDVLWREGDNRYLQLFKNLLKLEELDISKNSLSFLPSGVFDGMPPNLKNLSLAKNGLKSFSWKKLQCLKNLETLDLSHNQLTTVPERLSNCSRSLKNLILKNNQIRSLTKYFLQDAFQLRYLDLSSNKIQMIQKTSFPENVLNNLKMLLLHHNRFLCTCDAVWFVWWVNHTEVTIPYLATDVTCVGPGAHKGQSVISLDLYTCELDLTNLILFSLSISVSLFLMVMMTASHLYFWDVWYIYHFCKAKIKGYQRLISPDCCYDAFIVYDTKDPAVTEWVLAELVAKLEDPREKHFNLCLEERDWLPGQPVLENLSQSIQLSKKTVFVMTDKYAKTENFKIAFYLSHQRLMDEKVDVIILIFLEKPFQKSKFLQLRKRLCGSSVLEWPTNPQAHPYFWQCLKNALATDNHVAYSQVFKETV
The data set is described as follows: HEK293-Blue-hTLR-7 cells assay (SEAP reporter, R848 stimulation). Particulars: HEK293-Blue-hTLR7 cells, R848, 20 hrs; read-out: HEK/hTLR7 IC50. The format is cell-based. A digest of the protocol:
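HEK293-Blue-hTLR7 cells (NF-κB/AP-1-driven SEAP reporter) were stimulated with R848 alongside serially diluted compound at 1% final DMSO for 20 h at 37 °C. Supernatant SEAP was then developed with QUANTI-Blue for 2 h at 37 °C and absorbance read at 620–655 nm; antagonism is measured as reduced reporter signal.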

A further data set has as its target T3, CYP2D6 (Homo sapiens, UniProt P10635).
T3 construct: tissue BD-Gentest 452117; host or cells: human liver microsomes
As to the kind of experiment: CYP inhibition assay in human liver microsome, CYP2D6. The format is in vitro ADME. Particulars: substrate dextromethorphan 5 μM, second value of 2C9/2D6/3A4; for inhibition at 10 min, 10 µM: human, human liver microsomes, probe dextromethorphan 5 μM. An outline of the steps: as §1

From patent US20210395239A1 (Hoffmann-La Roche Inc., priority 2018, published 2021) come the findings set out here.

The structures appear in SMILES notation.

T1 sequence (P11712 whole entry): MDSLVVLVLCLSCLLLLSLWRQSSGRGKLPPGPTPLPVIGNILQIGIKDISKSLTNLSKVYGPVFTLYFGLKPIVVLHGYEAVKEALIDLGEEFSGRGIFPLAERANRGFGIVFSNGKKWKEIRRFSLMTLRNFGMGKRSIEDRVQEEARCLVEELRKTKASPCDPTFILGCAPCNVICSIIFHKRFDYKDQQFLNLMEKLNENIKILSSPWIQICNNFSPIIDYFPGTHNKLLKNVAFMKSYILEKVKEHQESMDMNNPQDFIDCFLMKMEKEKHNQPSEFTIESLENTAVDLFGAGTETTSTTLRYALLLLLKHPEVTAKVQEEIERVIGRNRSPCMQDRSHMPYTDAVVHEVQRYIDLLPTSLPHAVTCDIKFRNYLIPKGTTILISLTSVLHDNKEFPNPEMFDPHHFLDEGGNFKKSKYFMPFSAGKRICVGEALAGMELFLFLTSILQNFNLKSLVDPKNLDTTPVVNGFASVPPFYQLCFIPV
T3 sequence (P10635 whole entry): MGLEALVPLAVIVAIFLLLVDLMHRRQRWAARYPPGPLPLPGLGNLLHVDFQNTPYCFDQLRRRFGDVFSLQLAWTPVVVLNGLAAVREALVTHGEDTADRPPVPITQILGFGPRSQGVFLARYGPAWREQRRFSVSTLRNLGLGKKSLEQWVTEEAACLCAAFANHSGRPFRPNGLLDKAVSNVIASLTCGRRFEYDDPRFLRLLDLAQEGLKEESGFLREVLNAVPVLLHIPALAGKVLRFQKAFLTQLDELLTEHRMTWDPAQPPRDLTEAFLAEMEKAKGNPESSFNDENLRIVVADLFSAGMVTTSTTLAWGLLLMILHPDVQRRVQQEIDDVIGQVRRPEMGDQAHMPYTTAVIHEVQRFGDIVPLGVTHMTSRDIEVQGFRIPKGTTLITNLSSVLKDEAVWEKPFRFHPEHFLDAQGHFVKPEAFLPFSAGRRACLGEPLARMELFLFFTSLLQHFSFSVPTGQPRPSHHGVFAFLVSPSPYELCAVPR

What is called inhibition is the relative decrease from the control value, in per cent. With `C[C@@H]1CN(c2ccc(C#N)c3ncccc23)C[C@H](CN2CCN(c3ccnc(N4CCNCC4)n3)CC2)O1` [Example 15, 5-[(2R,6S)-2-methyl-6-[[4-(2-piperazin-1-ylpyrimidin-4-yl)piperazin-1-yl]methyl]morpholin-4-yl]quinoline-8-carbonitrile], the inhibition at 5 min, 10 µM on CYP2C9 stood at 9%. Also, the IC50 on human TLR7 came out at 7 nM. On CYP2D6, the inhibition at 10 min, 10 µM is -2.5%.

`C[C@@H]1CN(c2ccc(C#N)c3ncccc23)C[C@H](CN2CCN(c3ccnc(N[C@H]4CNC[C@H]4F)n3)CC2)O1` [Example 24, 5-[(2S,6R)-2-[[4-[2-[[(3S,4R)-4-fluoropyrrolidin-3-yl]amino]pyrimidin-4-yl]piperazin-1-yl]methyl]-6-methyl-morpholin-4-yl]quinoline-8-carbonitrile]: the inhibition at 5 min, 10 µM at CYP2C9 came to 3.5%. Moreover, the IC50 at human TLR7 came out at 38 nM. Further, the inhibition at 10 min, 10 µM on CYP2D6 came to 6%.

As for `COC1CN(c2nccc(N3CCN(C[C@H]4CN(c5ccc(C#N)c6ncccc56)C[C@@H](C)O4)CC3)n2)C[C@H]1N` (stereo in doubt) [Example 52, 5-[(2S,6R)-2-[[4-[2-[(3R,4R)-3-amino-4-methoxy-pyrrolidin-1-yl]pyrimidin-4-yl]piperazin-1-yl]methyl]-6-methyl-morpholin-4-yl]quinoline-8-carbonitrile], the “CYP (%) 2C9 inhibition” value at CYP2C9 amounted to 3.5%. For the same compound, the IC50 on human TLR7 was determined as 15 nM. Further, the “CYP (%) 2D6 inhibition” value on CYP2D6 worked out at 10.5%.

`C[C@@H]1CN(c2ccc(C#N)c3ncccc23)C[C@H](CN2CCN(c3ccnc(N4CCN[C@@H](CO)C4)n3)CC2)O1` [Example 29, 5-[(2S,6R)-2-[[4-[2-[(3R)-3-(hydroxymethyl)piperazin-1-yl]pyrimidin-4-yl]piperazin-1-yl]methyl]-6-methyl-morpholin-4-yl]quinoline-8-carbonitrile]: the inhibition at 5 min, 10 µM against CYP2C9 was -2%. Also, at human TLR7, the IC50 was determined as 16 nM. Besides, on CYP2D6, the inhibition at 10 min, 10 µM worked out at 8.5%.

In the case of `CO[C@H]1CN(c2nccc(N3CCN(C[C@H]4CN(c5ccc(C#N)c6ncccc56)C[C@@H](C)O4)CC3)n2)CC1N` (stereo in doubt) [Example 53, 5-[(2S,6R)-2-[[4-[2-[(3S,4S)-3-amino-4-methoxy-pyrrolidin-1-yl]pyrimidin-4-yl]piperazin-1-yl]methyl]-6-methyl-morpholin-4-yl]quinoline-8-carbonitrile], the “CYP (%) 2C9 inhibition” value at CYP2C9 was −4.5%. Also, the IC50 on human TLR7 worked out at 8 nM. In addition, the “CYP (%) 2D6 inhibition” value on CYP2D6 is 21.5%.

As to `C[C@@H]1CN(c2ccc(C#N)c3ncccc23)C[C@H](CN2CCN(c3cccc(NC4CNC4)n3)CC2)O1` [Example 38], the inhibition at 5 min, 10 µM on CYP2C9 is 20%. The IC50 on human TLR7 is 16 nM. Moreover, the inhibition at 10 min, 10 µM against CYP2D6 is 20.5%.

On to `C[C@@H]1CN(c2ccc(C#N)c3ncccc23)C[C@H](CN2CCN(c3cc(N4CCNCC4)ccn3)CC2)O1` [Example 9, 5-[(2R,6S)-2-methyl-6-[[4-(4-piperazin-1-yl-2-pyridyl)piperazin-1-yl]methyl]morpholin-4-yl]quinoline-8-carbonitrile], for which the inhibition at 5 min, 10 µM at CYP2C9 was -7.5%. At human TLR7, the IC50 amounted to 19 nM. In addition, on CYP2D6, the inhibition at 10 min, 10 µM was found to be 2%.

With `C[C@@H]1CN(c2ccc(C#N)n3ncc(F)c23)C[C@H](CN2CCN(c3ccc(N[C@H]4CNC[C@H]4F)nc3)CC2)O1` [Example 167, 3-fluoro-4-[(2S,6R)-2-[[4-[6-[[(3S,4R)-4-fluoropyrrolidin-3-yl]amino]-3-pyridyl]piperazin-1-yl]methyl]-6-methyl-morpholin-4-yl]pyrazolo[1,5-a]pyridine-7-carbonitrile], the inhibition at 5 min, 10 µM at CYP2C9 was -1%. In addition, the IC50 at human TLR7 was 14 nM. In addition, the inhibition at 10 min, 10 µM against CYP2D6 stood at 11.5%.

Take `C[C@@H]1CN(c2ccc(C#N)c3ncccc23)C[C@H](CN2CCN(c3cncc(N4CCNCC4)c3)CC2)O1` [Example 7, 5-[(2R,6S)-2-methyl-6-[[4-(5-piperazin-1-yl-3-pyridyl)piperazin-1-yl]methyl]morpholin-4-yl]quinoline-8-carbonitrile]: the inhibition at 5 min, 10 µM against CYP2C9 is 2%. Also, the IC50 on human TLR7 stood at 34 nM. Besides, on CYP2D6, the inhibition at 10 min, 10 µM is 7.5%.

For `C[C@@H]1CN(c2ccc(C#N)c3ncccc23)C[C@H](CN2CCN(c3nccc(N4CCNCC4)n3)CC2)O1` [Example 14, 5-[(2R,6S)-2-methyl-6-[[4-(4-piperazin-1-ylpyrimidin-2-yl)piperazin-1-yl]methyl]morpholin-4-yl]quinoline-8-carbonitrile], the inhibition at 5 min, 10 µM on CYP2C9 turned out to be 0%. The IC50 on human TLR7 was found to be 6 nM. Also, on CYP2D6, the inhibition at 10 min, 10 µM was 16.5%.

In the case of `C[C@@H]1CN(c2ccc(C#N)c3ncccc23)C[C@H](CN2CCC(C#N)(c3ccc(N4CCNCC4)cc3)CC2)O1` [Example 11, 5-[(2S,6R)-2-[[4-cyano-4-(4-piperazin-1-ylphenyl)-1-piperidyl]methyl]-6-methyl-morpholin-4-yl]quinoline-8-carbonitrile], on CYP2C9, the inhibition at 5 min, 10 µM was determined as 0.5%. Also, on human TLR7, the IC50 turned out to be 23 nM. Moreover, the inhibition at 10 min, 10 µM on CYP2D6 was found to be 0%.

Regarding `C[C@@H]1CN(c2ccc(C#N)c3ncccc23)C[C@H](CN2CCN(c3nc(N4CCNCC4)ncc3F)CC2)O1` [Example 45, 5-[(2S,6R)-2-[[4-(5-fluoro-2-piperazin-1-yl-pyrimidin-4-yl)piperazin-1-yl]methyl]-6-methyl-morpholin-4-yl]quinoline-8-carbonitrile], the inhibition at 5 min, 10 µM against CYP2C9 was -3.5%. Further, the IC50 on human TLR7 amounted to 15 nM. For the same compound, the inhibition at 10 min, 10 µM against CYP2D6 amounted to 5%.

As to `C[C@@H]1CN(c2ccc(C#N)c3ncccc23)C[C@H](CN2CCN(c3ccnc(N4CCNCC(O)C4)n3)CC2)O1` (stereo partly drawn) [Example 25, 5-[(2S,6R)-2-[[4-[2-(6-hydroxy-1,4-diazepan-1-yl)pyrimidin-4-yl]piperazin-1-yl]methyl]-6-methyl-morpholin-4-yl]quinoline-8-carbonitrile], the inhibition at 5 min, 10 µM against CYP2C9 was -5.5%. Further, the IC50 at human TLR7 is 26 nM. Also, the inhibition at 10 min, 10 µM against CYP2D6 is 5.5%.

For `C[C@@H]1CN(c2ccc(C#N)c3ncccc23)C[C@H](CN2CCN(c3ccc(N4CCNCC4)cn3)CC2)O1` [Example 8, 5-[(2R,6S)-2-methyl-6-[[4-(5-piperazin-1-yl-2-pyridyl)piperazin-1-yl]methyl]morpholin-4-yl]quinoline-8-carbonitrile], at CYP2C9, the inhibition at 5 min, 10 µM came to 1%. For the same compound, on human TLR7, the IC50 worked out at 50 nM. Moreover, the inhibition at 10 min, 10 µM against CYP2D6 stood at 6%.

In the case of `C[C@@H]1CN(c2ccc(C#N)c3ncccc23)C[C@H](CN2CCN(c3cc(N4CCN(C)CC4)ncn3)CC2)O1` [Example 21, 5-[(2R,6S)-2-methyl-6-[[4-[6-(4-methylpiperazin-1-yl)pyrimidin-4-yl]piperazin-1-yl]methyl]morpholin-4-yl]quinoline-8-carbonitrile], the inhibition at 5 min, 10 µM at CYP2C9 is -3%. Also, at human TLR7, the IC50 amounted to 16 nM. Further, the inhibition at 10 min, 10 µM on CYP2D6 amounted to 2.5%.

Take `C[C@@H]1CN(c2ccc(C#N)n3ncc(F)c23)C[C@H](CN2CCN(c3ccc(N4C[C@H]5NCCO[C@@H]5C4)nc3)CC2)O1` [Example 168, 4-[(2S,6R)-2-[[4-[6-[(4aR,7aR)-3,4,4a,5,7,7a-hexahydro-2H-pyrrolo[3,4-b][1,4]oxazin-6-yl]-3-pyridyl]piperazin-1-yl]methyl]-6-methyl-morpholin-4-yl]-3-fluoro-pyrazolo[1,5-a]pyridine-7-carbonitrile]: the inhibition at 5 min, 10 µM at CYP2C9 is -8%. Further, the IC50 on human TLR7 was determined as 20 nM. Besides, at CYP2D6, the inhibition at 10 min, 10 µM amounted to 1.5%.
